Measurements from patent US9453000B2, “Polycyclic compound” (EISAI R&D MANAGEMENT CO., LTD., priority 2007, dated 2016).

System: Aβ42 production in rat primary neuronal culture
Assay: Quantification of Aβ peptide in culture of neurons from rat fetus brain (Aβ ELISA)
Assay type: cell-based
Conditions: Primary cortical neuron, 72 h, rat primary cortical neurons (embryonic day 18 Wistar), three days after addition of the compound, Aβx-42 ELISA of medium, read-out: Aβ42 production reducing effect IC50
Method: Quantification of Aβ Peptide in Culture of Neurons from Rat Fetus Brain
(1) Rat Primary Neuronal Culture
Primary neuronal cultures were prepared from the cerebral cortex of embryonic day 18 Wistar rats (Charles River Japan, Yokohama, Japan). Specifically, the embryos were aseptically removed from pregnant rats under ether anesthesia. The brain was isolated from the embryo and immersed in an ice-cold L-15 medium (Invitrogen Corp. Cat #11415-064, Carlsbad, Calif., USA, or SIGMA L1518, for example). The cerebral cortex was collected from the isolated brain under a stereoscopic microscope. The cerebral cortex fragments collected were enzymatically treated in an enzyme solution containing 0.25% trypsin (Invitrogen Corp. Cat #15050-065, Carlsbad, Calif., USA) and 0.01% DNase (Sigma D5025, St. Louis, Mo., USA) at 37° C. for 30 minutes to disperse the cells. Here, the enzymatic reaction was stopped by adding inactivated horse serum to the solution. The enzymatically treated solution was centrifuged at 1,500 rpm for five minutes to remove the supernatant. 5 to 10 ml of a medium was added to the resulting cell mass. Neurobasal medium (Invitrogen Corp. Cat #21103-049, Carlsbad, Calif., USA) supplemented with 2% B27 supplement (Invitrogen Corp. Cat #17504-044, Carlsbad, Calif., USA), 25 μM 2-mercaptoethanol (2-ME, WAKO Cat #139-06861, Osaka, Japan), 0.5 mM L-glutamine (Invitrogen Corp. Cat #25030-081, Carlsbad, Calif., USA), and Antibiotics-Antimycotics (Invitrogen Corp. Cat #15240-062, Carlsbad, Calif., USA) was used as the medium (Neurobasal/B27/2-ME). However, the above Neurobasal medium not supplemented with 2-ME (Neurobasal/B27) was used for the assay. The cells were redispersed by mild pipetting of the cell mass to which the medium was added. The cell dispersion was filtered through a 40-μm nylon mesh (Cell Strainer, Cat #35-2340, Becton Dickinson Labware, Franklin Lakes, N.J., USA) to remove the remaining cell mass, and thus a neuronal cell suspension was obtained. The neuronal cell suspension was diluted with the medium and then plated in a volume of 100 μl/well at an initial cell density of 5×10^5 cells/cm^2 in a 96-well polystyrene culture plate pre-coated with poly-L or D-lysine (Falcon Cat #35-3075, Becton Dickinson Labware, Franklin Lakes, N.J., USA coated with poly-L-lysine using the method shown below, or BIOCOAT™ cell environments Poly-D-lysine cell ware 96-well plate, Cat #35-6461, Becton Dickinson Labware, Franklin Lakes, N.J., USA). Poly-L-lysine coating was carried out as follows. 100 μg/ml of a poly-L-lysine (SIGMA P2636, St. Louis, Mo., USA) solution was aseptically prepared with a 0.15 M borate buffer (pH 8.5). 100 μl/well of the solution was added to the 96-well polystyrene culture plate and incubated at room temperature for one or more hours or at 4° C. overnight or longer. The coated 96-well polystyrene culture plate was washed with sterile water four or more times, and then dried or rinsed with, for example, sterile PBS or medium, and used for cell plating. The plated cells were cultured in the culture plate at 37° C. in 5% CO2-95% air for one day. Then, the total amount of the medium was replaced with a fresh Neurobasal™/B27/2-ME medium, and then the cells were cultured for further three days.
The drug was added to the culture plate on Day 4 of culture as follows. The total amount of the medium was removed from the wells, and 180 μl/well of Neurobasal medium not containing 2-ME and containing 2% B-27 (Neurobasal/B27) was added thereto. A solution of the test compound in dimethyl sulfoxide (hereinafter abbreviated as DMSO) was diluted with Neurobasal/B27 at 10-fold of the final concentration. 20 μl/well of the dilution was added to and sufficiently mixed with the medium. The final DMSO concentration was 1% or less. Only DMSO was added to the control group.
The cells were cultured for three days after addition of the compound, and the total amount of the medium was collected. […]

SMILES | IC50 [nM]
COc1cc(/C=C/c2nc3n(n2)CCCC3(O)c2ccc(C(C)C)cc2)ccc1-n1cnc(C)c1 (single isomer, unassigned) [Example 55, (−)-8-(4-isopropylphenyl)-2-{(E)-2-[3-methoxy-4-(4-methyl-1H-imidazol-1-yl)phenyl]vinyl}-5,6,7,8-tetrahydro[1,2,4]triazolo[1,5-a]pyridin-8-ol] | 28
COc1cc(/C=C/c2nc3n(n2)CCC[C@]3(O)c2ccccc2F)ccc1-n1cnc(C)c1 (single isomer, unassigned) [Example 59, (−)-8-(2-fluorophenyl)-2-{(E)-2-[3-methoxy-4-(4-methyl-1H-imidazol-1-yl)phenyl]vinyl}-5,6,7,8-tetrahydro-[1,2,4]triazolo[1,5-a]pyridin-8-ol] | 45
COc1cc(/C=C/c2nc3n(n2)CCCC3C2CCCN2Cc2ccccc2)ccc1-n1cnc(C)c1 (single isomer, unassigned) [Example 133, 8-(1-benzylpyrrolidin-2-yl)-2-{(E)-2-[3-methoxy-4-(4-methyl-1H-imidazol-1-yl)phenyl]vinyl}-5,6,7,8-tetrahydro[1,2,4]triazolo[1,5-a]pyridine] | 65
COc1nc(/C=C/c2nc3n(n2)CCCC3c2cc(F)c(F)c(F)c2)ccc1-n1cnc(C)c1 (single isomer, unassigned) [Example 169, (−)-2-{(E)-2-[6-methoxy-5-(4-methyl-1H-imidazol-1-yl)pyridin-2-yl]vinyl}-8-(3,4,5-trifluorophenyl)-5,6,7,8-tetrahydro-[1,2,4]triazolo[1,5-a]pyridine] | 22
COc1nc(/C=C/c2nc3n(n2)CCC[C@H]3c2ccc(F)c(F)c2)ccc1-n1cnc(C)c1 (single isomer, unassigned) [Example 171, (−)-8-(3,4-difluorophenyl)-2-{(E)-2-[6-methoxy-5-(4-methyl-1H-imidazol-1-yl)pyridin-2-yl]vinyl}-5,6,7,8-tetrahydro-[1,2,4]triazolo[1,5-a]pyridine] | 17
COc1nc(/C=C/c2nc3n(n2)CCC[C@H]3c2ccc(F)cc2)ccc1-n1cnc(C)c1 (single isomer, unassigned) [Example 173, (−)-8-(4-fluorophenyl)-2-{(E)-2-[6-methoxy-5-(4-methyl-1H-imidazol-1-yl)pyridin-2-yl]vinyl}-5,6,7,8-tetrahydro-[1,2,4]triazolo[1,5-a]pyridine] | 37
COc1nc(/C=C/c2nc3n(n2)CCCC3c2cccc(F)c2)ccc1-n1cnc(C)c1 (single isomer, unassigned) [Example 189, (−)-8-(3-fluorophenyl)-2-{(E)-2-[6-methoxy-5-(4-methyl-1H-imidazol-1-yl)pyridin-2-yl]vinyl}-5,6,7,8-tetrahydro[1,2,4]triazolo[1,5-a]pyridine] | 43
COc1nc(/C=C/c2nc3n(n2)CCCC3c2cccc3ccccc23)ccc1-n1cnc(C)c1 (single isomer, unassigned) [Example 199, (+)-2-{(E)-2-[6-methoxy-5-(4-methyl-1H-imidazol-1-yl)pyridin-2-yl]vinyl}-8-(naphthalen-1-yl)-5,6,7,8-tetrahydro-[1,2,4]triazolo[1,5-a]pyridine] | 23
COc1cc(/C=C/c2nc3n(n2)CCC[C@H]3c2ccc(F)cc2)cnc1-n1cnc(C)c1 (single isomer, unassigned) [Example 212, (−)-8-(4-fluorophenyl)-2-{(E)-2-[5-methoxy-6-(4-methyl-1H-imidazol-1-yl)pyridin-3-yl]vinyl}-5,6,7,8-tetrahydro-[1,2,4]triazolo[1,5-a]pyridine] | 100
COc1cc(/C=C/c2nc3n(n2)CCC[C@H]3c2ccc(F)c(F)c2)cnc1-n1cnc(C)c1 (single isomer, unassigned) [Example 218, (−)-8-(3,4-difluorophenyl)-2-{(E)-2-[5-methoxy-6-(4-methyl-1H-imidazol-1-yl)pyridin-3-yl]vinyl}-5,6,7,8-tetrahydro-[1,2,4]triazolo[1,5-a]pyridine] | 69
COc1cc(/C=C/c2nc3n(n2)CCCC3c2ccccc2C(F)(F)F)ccc1-n1cnc(C)c1 (single isomer, unassigned) [Example 311, (−)-2-{(E)-2-[3-methoxy-4-(4-methyl-1H-imidazol-1-yl)phenyl]vinyl}-8-(2-trifluoromethylphenyl)-5,6,7,8-tetrahydro-[1,2,4]triazolo[1,5-a]pyridine] | 11
COc1cc(/C=C/c2nc3n(n2)CC[C@H]3c2ccccc2C(F)(F)F)ccc1-n1cnc(C)c1 (single isomer, unassigned) [Example 317, (−)-2-{(E)-2-[3-methoxy-4-(4-methyl-1H-imidazol-1-yl)phenyl]vinyl}-7-(2-trifluoromethylphenyl)-6,7-dihydro-5H-pyrrolo[1,2-b][1,2,4]triazole] | 25
COc1nc(/C=C/c2nc3n(n2)CCC[C@@H]3c2ccccc2C)ccc1-n1cnc(C)c1 (single isomer, unassigned) [Example 319, (−)-2-{(E)-2-[6-methoxy-5-(4-methyl-1H-imidazol-1-yl)pyridin-2-yl]vinyl}-8-(o-tolyl)-5,6,7,8-tetrahydro[1,2,4]triazolo[1,5-a]pyridine] | 15
COc1nc(/C=C/c2nc3n(n2)CCC[C@@H]3c2cccc(C(F)(F)F)c2)ccc1-n1cnc(C)c1 (single isomer, unassigned) [Example 321, (−)-2-{(E)-2-[6-methoxy-5-(4-methyl-1H-imidazol-1-yl)pyridin-2-yl]vinyl}-8-(3-trifluoromethylphenyl)-5,6,7,8-tetrahydro[1,2,4]triazolo[1,5-a]pyridine] | 23
COc1nc(/C=C/c2nc3n(n2)CCCC3c2cc(F)ccc2C(F)(F)F)ccc1-n1cnc(C)c1 (single isomer, unassigned) [Example 329, (−)-8-(5-fluoro-2-trifluoromethylphenyl)-2-{(E)-2-[6-methoxy-5-(4-methyl-1H-imidazol-1-yl)pyridin-2-yl]vinyl}-5,6,7,8-tetrahydro-[1,2,4]triazolo[1,5-a]pyridine] | 17
COc1nc(/C=C/c2nc3n(n2)CCCC3c2c(F)cccc2C(F)(F)F)ccc1-n1cnc(C)c1 (single isomer, unassigned) [Example 331, (−)-8-(6-fluoro-2-trifluoromethylphenyl)-2-{(E)-2-[6-methoxy-5-(4-methyl-1H-imidazol-1-yl)pyridin-2-yl]vinyl}-5,6,7,8-tetrahydro-[1,2,4]triazolo[1,5-a]pyridine] | 22
COc1nc(/C=C/c2nc3n(n2)CCC[C@@H]3c2cccc(F)c2C)ccc1-n1cnc(C)c1 (single isomer, unassigned) [Example 333, (−)-8-(3-fluoro-2-methylphenyl)-2-{(E)-2-[6-methoxy-5-(4-methyl-1H-imidazol-1-yl)pyridin-2-yl]vinyl}-5,6,7,8-tetrahydro-[1,2,4]triazolo[1,5-a]pyridine] | 10
Cc1cn(-c2ccc(/C=C/c3nc4n(n3)CCC[C@@H]4c3ccccc3C(F)(F)F)nc2OCC(F)F)cn1 (single isomer, unassigned) [Example 354, (−)-2-{(E)-2-[5-(4-methyl-1H-imidazol-1-yl)-6-(2,2-difluoroethoxy)pyridin-2-yl]vinyl}-8-(2-trifluoromethylphenyl)-5,6,7,8-tetrahydro-[1,2,4]triazolo[1,5-a]pyridine] | 37
